Experimental findings from US11384060B2, “Amide compounds and use thereof” (ALPHALA CO., LTD., priority 2017, dated 2022) are described below.

pIC50: −log10 of the molar value. Where two headings read alike, the source gives them in different places. Bounds are passed on as bounds.

For assay [1], the target named is T1, glucagon receptor (GCGR) overexpressed CHO-K1 cells or human primary hepatocytes (Homo sapiens, UniProt P47871).
T1 construct: expressed in transfected cells; host or cells: GCGR overexpressed CHO-K1 cells or human primary hepatocytes (endogenous receptor)
T1 sequence (P47871 26-477): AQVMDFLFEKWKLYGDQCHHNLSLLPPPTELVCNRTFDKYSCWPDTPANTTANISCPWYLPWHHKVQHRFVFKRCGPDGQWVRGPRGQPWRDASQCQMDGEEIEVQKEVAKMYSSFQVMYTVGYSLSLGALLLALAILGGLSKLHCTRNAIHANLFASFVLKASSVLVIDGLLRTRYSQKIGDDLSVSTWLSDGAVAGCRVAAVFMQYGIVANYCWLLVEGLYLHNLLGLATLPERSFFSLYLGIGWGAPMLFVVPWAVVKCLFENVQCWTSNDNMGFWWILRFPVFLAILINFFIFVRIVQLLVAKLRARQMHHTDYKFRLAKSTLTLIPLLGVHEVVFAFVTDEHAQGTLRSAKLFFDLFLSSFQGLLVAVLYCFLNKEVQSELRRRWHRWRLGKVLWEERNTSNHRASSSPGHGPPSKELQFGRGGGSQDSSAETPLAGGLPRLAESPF
The assay can be described thus: Glucagon cAMP inhibition assay (Cisbio cAMP Dynamic 2 HTRF). Type of assay: cell-based. The procedure, abridged: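 GCGR-overexpressing CHO-K1 cells or human primary hepatocytes in HBSS with 0.1% BSA and 800 nM IBMX, pre-incubated 30 min with serially diluted compounds (1% DMSO final), then stimulated 30 min at room temperature with glucagon at its EC50. cAMP measured by HTRF after 60 min lysis; IC50 by non-linear regression.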
(In TR-FRET formats the signal depends on donor and acceptor labels being close together.)

A further assay deals with T2, glucagon receptor (GCGR) (Homo sapiens, UniProt P47871).
T2 construct: expressed in transfected cells; host or cells: CHO-K1 cells overexpressing GCGR (membrane fractions)
T2 sequence (P47871 26-477): as above
Kind of assay: I125-glucagon binding assay (competition, GCGR membrane fractions). The procedure, abridged: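 Membranes from CHO-K1 cells overexpressing GCGR, 7.5 μg/well in 50 mM Tris pH 7.4 with 0.5% BSA, were preincubated 5 min with serially diluted compounds, then given 0.0625 nM final I^125-glucagon for 30 min at 25° C. Bound label was filtered on PEI-coated GF/B and counted; IC50 by non-linear regression.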

[2] abbreviates: inhibition of glucagon (EC50 concentration) induced cAMP production.
Setting [3] is: competition with I125-glucagon 0.0625 nM, membrane fractions of GCGR overexpressed CHO-K1 cells.

On to `CC(C)[C@@H](COc1ccc(-c2cc3ccccc3o2)c(F)c1)Nc1ccc(C(=O)NCCS(=O)(=O)O)cc1` [Compound 8-4, (S)-2-(4-((1-(4-(benzofuran-2-yl)-3-fluorophenoxy)-3-methylbutan-2-yl)amino)benzamido)ethane-1-sulfonic Acid], for which the “IC50 cAMP” value in assay [1] (setting [2]) worked out at 10292 nM. At glucagon receptor (GCGR) (setting [3]), this molecule had a pIC50 of 5.76.

On to `CC(C)C[C@H](Cc1ccc(-c2ccc(C(C)(C)C)cc2)cc1)Nc1ccc(C(=O)NCCC(=O)O)cc1` [Compound 19-8, (R)-3-(4-((1-(4′-(tert-butyl)-[1,1′-biphenyl]-4-yl)-4-methylpentan-2-yl)amino)benzamido)propanoic Acid], for which, in assay [1], the “IC50 cAMP” value amounted to 877 nM. This molecule also gave a pIC50 on glucagon receptor (GCGR) of 6.82.

In the case of `CC(C)[C@@H](COc1ccc(-c2ccc(C(F)(F)F)cc2F)cc1)Nc1ccc(C(=O)NCCC(=O)O)cc1` [Compound 1-25], the “IC50 cAMP” value in assay [1] (setting [2]) was found to be 90.4 nM. The pIC50 at glucagon receptor (GCGR) (setting [3]) was 7.36.

For `CC(C)C[C@@H](COc1ccc(-c2ccc(F)cc2F)nn1)Nc1ccc(C(=O)NCCC(=O)O)cc1` [Compound 17-1, (S)-3-(4-((1-((6-(2,4-difluorophenyl)pyridazin-3-yl)oxy)-4-methylpentan-2-yl)amino)benzamido)propanoic Acid], the “IC50 cAMP” value in assay [1] (setting [2]) was 4239 nM. This molecule gave a pIC50 at glucagon receptor (GCGR) (setting [3]) of 5.65.

On to `CCCC[C@@H](COc1ccc(-c2cc3ccccc3o2)c(Cl)c1)Nc1ccc(C(=O)NCCC(=O)O)cc1` [Compound 3-10, (S)-3-(4-((1-(4-(benzofuran-2-yl)-3-chlorophenoxy)hexan-2-yl)amino)benzamido)propanoic Acid], for which the “IC50 cAMP” value in assay [1] (setting [2]) turned out to be 88.7 nM. In addition, the negative logarithm of the IC50 (pIC50) on glucagon receptor (GCGR) (setting [3]) is 7.70.

For `O=C(O)CCNC(=O)c1ccc(N[C@@H](Cc2ccc(F)cc2)C(=O)Nc2ccc(-c3cc4ccccc4o3)cc2)cc1` [Compound 23-10, (S)-3-(4-((1-((4-(benzofuran-2-yl)phenyl)amino)-3-(4-fluorophenyl)-1-oxopropan-2-yl)amino)benzamido)propanoic Acid], the “IC50 cAMP” value in assay [1] is reported as 1900 nM. Besides, the pIC50 at glucagon receptor (GCGR) was 7.21.

As for `CCCC[C@@H](COc1ccc(-c2cc3ccccc3o2)nc1)Nc1ccc(C(=O)NCCC(=O)O)cc1` [Compound 10-12, (S)-3-(4-((1-((6-(benzofuran-2-yl)pyridin-3-yl)oxy)hexan-2-yl)amino)benzamido)propanoic Acid], the “IC50 cAMP” value in assay [1] (setting [2]) was 791.6 nM. Also, the pIC50 at glucagon receptor (GCGR) (setting [3]) was 6.74.

On to `CC(C)[C@@H](COc1ccc(-c2cc3ccccc3o2)c(Cl)c1)Nc1ccc(C(=O)NCCS(=O)(=O)O)cc1` [Compound 3-18, (S)-2-(4-((1-(4-(benzofuran-2-yl)-3-chlorophenoxy)-3-methylbutan-2-yl)amino)benzamido)ethane-1-sulfonic Acid], for which the “IC50 cAMP” value in assay [1] (setting [2]) was over 30000 nM. The molecule also showed a pIC50 at glucagon receptor (GCGR) (setting [3]) of 6.08.

Consider `CCCC[C@@H](COc1ccc(-c2ccc(Cl)cc2Cl)c(OC)c1)Nc1ccc(C(=O)NCCC(=O)O)cc1` [Compound 13-9, (S)-3-(4-((1-((2′,4′-dichloro-2-methoxy-[1,1′-biphenyl]-4-yl)oxy)hexan-2-yl)amino)benzamido)propanoic Acid], for which the “IC50 cAMP” value in assay [1] (setting [2]) is 219 nM. Further, at glucagon receptor (GCGR) (setting [3]), the pIC50 is 7.27.

As for `C[C@@H](Cc1ccc(-c2ccc(Cl)cc2Cl)cc1)Nc1ccc(C(=O)NCCC(=O)O)cc1` [Compound 19-2, (S)-3-(4-((1-(2′,4′-dichloro-[1,1′-biphenyl]-4-yl)propan-2-yl)amino)benzamido)propanoic Acid], the “IC50 cAMP” value in assay [1] came out at 5186 nM. The molecule also showed a pIC50 at glucagon receptor (GCGR) of 5.20.

Regarding `CC(C)[C@@H](COc1ccc(-c2ccc(C(F)(F)F)cc2Cl)nc1)Nc1ccc(C(=O)NCCC(=O)O)cc1` [Compound 10-2], in assay [1] (setting [2]), the “IC50 cAMP” value came to 1805 nM. Also, the negative logarithm of the IC50 (pIC50) on glucagon receptor (GCGR) (setting [3]) is 6.59.

On to `CC[C@H](C)[C@@H](COc1ccc(-c2ccc(C(F)(F)F)cc2F)c(F)c1)Nc1ccc(C(=O)NCCC(=O)O)cc1` [Compound 8-10, 3-(4-(((2S,3S)-1-((2,2′-difluoro-4′-(trifluoromethyl)-[1,1′-biphenyl]-4-yl)oxy)-3-methylpentan-2-yl)amino)benzamido)propanoic Acid], for which the “IC50 cAMP” value in assay [1] (setting [2]) is given as 353.2 nM. In addition, the negative logarithm of the IC50 (pIC50) at glucagon receptor (GCGR) (setting [3]) was 6.73.

For `CCCC[C@@H](COc1ccc(-c2ccc(C(F)(F)F)cc2F)nc1)Nc1ccc(C(=O)NCCC(=O)O)cc1` [Compound 10-8, (S)-3-(4-((1-((6-(2-fluoro-4-(trifluoromethyl)phenyl)pyridin-3-yl)oxy)hexan-2-yl)amino)benzamido)propanoic Acid], in assay [1] (setting [2]), the “IC50 cAMP” value is 344 nM. Further, the pIC50 at glucagon receptor (GCGR) (setting [3]) was 6.74.

Turning to `CC(C)C[C@@H](COc1cnc(-c2cc3ccccc3o2)nc1)Nc1ccc(C(=O)NCCC(=O)O)cc1` [Compound 12-3, (S)-3-(4-((1-((2-(benzofuran-2-yl)pyrimidin-5-yl)oxy)-4-methylpentan-2-yl)amino)benzamido)propanoic Acid], in assay [1] (setting [2]), the “IC50 cAMP” value was over 30000 nM. For the same molecule, the negative logarithm of the IC50 (pIC50) on glucagon receptor (GCGR) (setting [3]) is 6.22.

For the molecule `CCCC[C@@H](COc1ccc(-c2ccc(Cl)cc2Cl)c(Cl)c1)Nc1ccc(C(=O)NCc2nnn[nH]2)cc1` [Compound 3-13, (S)—N-((1H-tetrazol-5-yl)methyl)-4-((1-((2,2′,4′-trichloro-[1,1′-biphenyl]-4-yl)oxy)hexan-2-yl)amino)benzamide], the “IC50 cAMP” value in assay [1] (setting [2]) was 279.9 nM. Besides, the pIC50 on glucagon receptor (GCGR) (setting [3]) was 7.04.

On to `CCOC(=O)CCNC(=O)c1ccc(N[C@@H](CC(C)C)C(=O)Nc2ccc(-c3cc4ccccc4s3)cc2)cc1` [Compound 23-11, Ethyl (S)-3-(4-((1-((4-(benzo[b]thiophen-2-yl)phenyl)amino)-4-methyl-1-oxopentan-2-yl)amino)benzamido)propanoate], for which, in assay [1], the “IC50 cAMP” value was 6800 nM. On glucagon receptor (GCGR) (uM), this molecule gave an IC50 of over 10 µM.

For `CC(C)(C)c1nnc(-c2ccc(OC[C@@H](Nc3ccc(C(=O)NCCC(=O)O)cc3)c3ccc(-c4ccc(C(F)(F)F)cc4)cc3)nc2)o1` [Compound 15-30, (S)-3-(4-((2-((5-(5-(tert-butyl)-1,3,4-oxadiazol-2-yl)pyridin-2-yl)oxy)-1-(4′-(trifluoromethyl)-[1,1′-biphenyl]-4-yl)ethyl)amino)benzamido)propanoic Acid], in assay [1], the “IC50 cAMP” value is given as 18257 nM. The pIC50 on glucagon receptor (GCGR) was 5.70.

For the molecule `CCCC[C@@H](COc1ccc(-c2cc3ccccc3o2)c(C)n1)Nc1ccc(C(=O)NCCC(=O)O)cc1` [Compound 18-1, (S)-3-(4-((1-((5-(benzofuran-2-yl)-6-methylpyridin-2-yl)oxy)hexan-2-yl)amino)benzamido)propanoic Acid], the “IC50 cAMP” value in assay [1] was 250 nM. Further, the pIC50 at glucagon receptor (GCGR) is 6.41.

With `CC(C)[C@H](COc1ccc(-c2ccc(C(F)(F)F)cc2Cl)cc1)Nc1ccc(C(=O)NCCC(=O)O)cc1` [Compound 1-35], the “IC50 cAMP” value in assay [1] (setting [2]) is 209.3 nM. Besides, the pIC50 on glucagon receptor (GCGR) (setting [3]) is 6.84.

Take `CCC(C)[C@@H](COc1cnc(-c2ccc(Cl)cc2Cl)nc1)Nc1ccc(C(=O)NCCC(=O)O)cc1` (stereo partly drawn) [Compound 12-10, 3-(4-(((2S)-1-((2-(2,4-dichlorophenyl)pyrimidin-5-yl)oxy)-3-methylpentan-2-yl)amino)benzamido)propanoic Acid]: the “IC50 cAMP” value in assay [1] (setting [2]) was 890 nM. Further, the pIC50 at glucagon receptor (GCGR) (setting [3]) was 6.47.

On to `CCCC[C@@H](COc1cnc(-c2ccc(C(F)(F)F)cc2Cl)nc1)Nc1ccc(C(=O)NCCC(=O)O)cc1` [Compound 12-5, (S)-3-(4-((1-((2-(2-chloro-4-(trifluoromethyl)phenyl)pyrimidin-5-yl)oxy)hexan-2-yl)amino)benzamido)propanoic Acid], for which the “IC50 cAMP” value in assay [1] (setting [2]) amounted to 2357 nM. On glucagon receptor (GCGR) (setting [3]), this molecule had a pIC50 of 6.35.

On to `CCOC(=O)CCNC(=O)c1ccc(N[C@@H](CC(C)C)C(=O)Nc2ccc(-c3cc4ccccc4o3)cc2)cc1` [Compound 23-6, Ethyl (S)-3-(4-((1-((4-(benzofuran-2-yl)phenyl)amino)-4-methyl-1-oxopentan-2-yl)amino)benzamido)propanoate], for which the “IC50 cAMP” value in assay [1] came out at 181 nM. For the same molecule, on glucagon receptor (GCGR), the negative logarithm of the IC50 (pIC50) is 5.60.

For `CC[C@H](C)[C@@H](COc1ccc(-c2cc3ccccc3o2)c(F)c1)Nc1ccc(C(=O)NCCC(=O)O)cc1` [Compound 8-7, 3-(4-(((2S,3S)-1-(4-(benzofuran-2-yl)-3-fluorophenoxy)-3-methylpentan-2-yl)amino)benzamido)propanoic Acid], the “IC50 cAMP” value in assay [1] (setting [2]) stood at 129 nM. On glucagon receptor (GCGR) (setting [3]), this molecule showed a pIC50 of 6.73.

For `CCOC(=O)CCNC(=O)c1ccc(N[C@H](Cc2ccc(-c3ccc(C(C)(C)C)cc3)cc2)C(=O)Nc2ccc(C(F)(F)F)cc2)cc1` [Compound 24-15, Ethyl (R)-3-(4-((3-(4′-(tert-butyl)-[1,1′-biphenyl]-4-yl)-1-oxo-1-((4-(trifluoromethyl)phenyl)amino)propan-2-yl)amino)benzamido)propanoate], the “IC50 cAMP” value in assay [1] stood at 7988 nM. In addition, the negative-log IC50 (pIC50) at glucagon receptor (GCGR) is 6.24.

Regarding `CC(C)[C@@H](COc1ccc(-c2cc3ccccc3o2)nc1)Nc1ccc(C(=O)NCCC(=O)O)cc1` [Compound 10-6, (S)-3-(4-((1-((6-(benzofuran-2-yl)pyridin-3-yl)oxy)-3-methylbutan-2-yl)amino)benzamido)propanoic Acid], the “IC50 cAMP” value in assay [1] (setting [2]) is recorded as 2650 nM. Also, on glucagon receptor (GCGR) (setting [3]), the pIC50 is 6.60.

As for `CCCC[C@@H](COc1ccc(-c2cc3ccccc3o2)cc1)Nc1ccc(C(=O)NCCC(=O)O)cc1` [Compound 1-10, (S)-3-(4-((1-(4-(benzofuran-2-yl)phenoxy)hexan-2-yl)amino)benzamido) propanoic Acid], the “IC50 cAMP” value in assay [1] (setting [2]) came out at 629.8 nM. Besides, the pIC50 at glucagon receptor (GCGR) (setting [3]) is 6.91.

By pIC50 is commonly meant the negative decadic logarithm of the IC50, by convention in mol/L. Low readings indicate a large IC50, high ones a small IC50. For orientation: IC50 means the concentration that gives 50% inhibition. Higher therefore signals lower potency.
